Reference: publication PMC9030223, “MBP-11901 Inhibits Tumor Growth of Hepatocellular Carcinoma through Multitargeted Inhibition of Receptor Tyrosine Kinases” (Cancers, 2022)

What was measured:
FGFR2 = biological target: T1, FGFR2 (Homo sapiens, UniProt P21802); assay: KdELECT binding constant
T1 construct: purchased Eurofins DiscoverX Corporation
Procedure: (§1) The profiling of MBP-11901 against a panel of 468 kinases was performed by DiscoverX using KINOMEscan technology, an active-site-dependent competition-binding assay (Eurofins DiscoverX Corporation, San Diego, CA, USA). Binding constants (Kd) were calculated by DiscoverX using KdELECT technology, a widely used assay for comparing selectivity across the kinome. The DiscoverX platform reports the thermodynamic Kd to facilitate direct comparison of inhibitor affinity across the kinome, independent of ATP concentration.

FGFR1 = biological target: T2, FGFR1 (Homo sapiens, UniProt P11362); assay: KdELECT binding constant
T2 construct: purchased Eurofins DiscoverX Corporation
Procedure: as §1

EGFR = biological target: T3, EGFR (Homo sapiens, UniProt P00533); assay: KdELECT binding constant
T3 construct: purchased Eurofins DiscoverX Corporation
Procedure: as §1

KIT = biological target: T4, KIT (Homo sapiens, UniProt P10721); assay: KdELECT binding constant; conditions: mean ± S.D. (n = 2)
T4 construct: purchased Eurofins DiscoverX Corporation
Procedure: as §1

MAP4K2 = biological target: T5, MAP4K2 (Homo sapiens, UniProt Q12851); assay: KINOMEscan competition binding / KdELECT
T5 construct: purchased Eurofins DiscoverX Corporation
Procedure: as §1

PDGFRβ = biological target: T6, PDGFRβ (Homo sapiens, UniProt P09619); assay: KINOMEscan competition binding / KdELECT
T6 construct: purchased Eurofins DiscoverX Corporation
Procedure: as §1

VEGFR2 = biological target: T7, VEGFR2 (Homo sapiens, UniProt P35968); assay: KINOMEscan competition binding / KdELECT
T7 construct: purchased Eurofins DiscoverX Corporation
Procedure: as §1

MEK5 = biological target: T8, MEK5 (Homo sapiens, UniProt Q13163); assay: KINOMEscan competition binding / KdELECT
T8 construct: purchased Eurofins DiscoverX Corporation
Procedure: as §1

FLT3 = biological target: T9, FLT3 (Homo sapiens, UniProt P36888); assay: KINOMEscan competition binding / KdELECT
T9 construct: purchased Eurofins DiscoverX Corporation
Procedure: as §1

[1] = test system: HepG2-Luc orthotopic liver tumor; assay: Orthotopic HCC mouse model (HepG2-Luc bioluminescence); type: in vivo; conditions: 82 mg/kg oral once every other day
Procedure: The orthotopic HCC mouse model was established by placing a small piece of tumor-derived HepG2-Luc cells. Mice were randomly distributed into 3 groups upon bioluminescence signal reaching 10^7. The first group served as the saline control. The second and third groups were orally administered MBP-11901 (82 mg/kg) and Nexavar® (164 mg/kg) once every other day for 4 weeks. Tumor progression/regression was recorded once weekly by quantifying the bioluminescence signals. Experimental animals were sacrificed by CO2 inhalation.

[2] = test system: phosphorylation of FLT3, VEGFR2, c-KIT, PDGFRβ and downstream signals in HepG2 cells; assay: Western blot of kinase phosphorylation; type: cell-based, human; conditions: HepG2, exposure 10 to 120 min, concentration-dependent
Procedure: HepG2 cells were seeded in a 60 mm^2 culture dish at a density of 1.5 × 10^6 cells/dish and incubated for 24 h. […] Cells were harvested and protein extraction and Western blotting methods were performed as previously described. Membranes were incubated using the following diluted primary antibodies; PARP (1:1000 dilution), caspase-3 (1:1000 dilution), cleaved caspase-3 (1:1000 dilution), pFLT3 (1:500 dilution), Ras (1:1000 dilution), pc-Raf (1:1000 dilution), pMEK1/2 (1:1000 dilution), pERK1/2 (1:1000 dilution), pAKT (1:1000 dilution), pmTOR (1:1000 dilution), pVEGFR2 (1:1000 dilution), pPDGFR β (1:2000 dilution), and β-actin (1:1000 dilution) in Tris-HCl-based buffer containing 0.2% Tween-20 (T1027, Biosesang, Seongnam, Korea) (TBS-T; pH 7.5). Membranes were then incubated with horseradish-conjugated secondary antibodies (1:5000, Cell Signaling Technologies, Beverly, MA, USA) for 1 h at 25 °C. After washing with TBS-T, immunoreactive bands were visualized using the chemiluminescence western imaging system (Supernova-Q1800TM, Centronics, Daejeon, Korea). Band intensities were measured using ImageJ (Version 1.50i; US National Institutes of Health, Bethesda, MD, USA) and were normalized to β-actin.

Huh-7 xenograft tumor = assay: Huh-7 subcutaneous xenograft; type: in vivo, mouse; conditions: Huh-7 subcutaneously implanted model
Description: We further verified the effectiveness of MBP-11901 by constructing a mouse model in which Hep3B and Huh-7 were subcutaneously transplanted in addition to the human liver cancer cell line HepG2. In the case of Hep3B, the administration was initiated at a tumor volume of about 300 mm^3, once every 2 d, and the experiment was terminated after a total of 12 administrations (Figure S5). […] In contrast, tumors had completely disappeared in 1 out of 6 animals in the MBP-11901 group; 1 had only a trace of a tumor measuring approximately 30 mm^3, whereas the average tumor volume in the 6 animals was approximately 100 mm^3. […] Unlike Nexavar®, there were no side-effects relating to drug resistance or rapid tumor growth.

MDA-MB-231 = assay: CCK-8 cell proliferation/cytotoxicity assay; type: cell-based; conditions: Homo sapiens, MDA-MB-231, 24 h
HepG2 cells = assay: Transwell migration and invasion assay; type: cell-based, human; conditions: HepG2, dose-dependent
Procedure: For the migration assay, HepG2 cells were seeded into the upper Transwell chamber at a density of 2 × 10^4 cells and incubated for 24 h. For the invasion assay, 100 μL of Matrigel: serum-free media (1:4) mixture was placed on the filter membrane in the upper chamber and incubated (37 °C, 4 h) to seed cells. Cells were exposed to MBP-11901 and sorafenib for 2 h. Then, the medium in the upper chamber was changed to serum-free medium, whereas the medium in the lower chamber was changed to a medium containing 10% FBS. The medium was replaced once every 2–3 d. Following 6 d incubation, the upper surfaces of the filters were scraped 5 times with cotton swabs to remove nonmigrated cells, whereas cells crossing the membrane into the lower chamber were stained with 1% (w/v) crystal violet for 30 min. Crystal violet was removed and cells were washed with tap water. For the migration assay, after drying at 25 °C, 10% acetic acid solution was added to cells, and left to react in a shaker for 30 min. Absorbance was measured at 590 nm using a microplate reader (SpectraMax i3, Molecular Devices). For the invasion assay, the number of migrated cells was counted.

[3] = 10000 nM, lower = stronger binding, read-out: % Control

T9 sequence (P36888 27-993): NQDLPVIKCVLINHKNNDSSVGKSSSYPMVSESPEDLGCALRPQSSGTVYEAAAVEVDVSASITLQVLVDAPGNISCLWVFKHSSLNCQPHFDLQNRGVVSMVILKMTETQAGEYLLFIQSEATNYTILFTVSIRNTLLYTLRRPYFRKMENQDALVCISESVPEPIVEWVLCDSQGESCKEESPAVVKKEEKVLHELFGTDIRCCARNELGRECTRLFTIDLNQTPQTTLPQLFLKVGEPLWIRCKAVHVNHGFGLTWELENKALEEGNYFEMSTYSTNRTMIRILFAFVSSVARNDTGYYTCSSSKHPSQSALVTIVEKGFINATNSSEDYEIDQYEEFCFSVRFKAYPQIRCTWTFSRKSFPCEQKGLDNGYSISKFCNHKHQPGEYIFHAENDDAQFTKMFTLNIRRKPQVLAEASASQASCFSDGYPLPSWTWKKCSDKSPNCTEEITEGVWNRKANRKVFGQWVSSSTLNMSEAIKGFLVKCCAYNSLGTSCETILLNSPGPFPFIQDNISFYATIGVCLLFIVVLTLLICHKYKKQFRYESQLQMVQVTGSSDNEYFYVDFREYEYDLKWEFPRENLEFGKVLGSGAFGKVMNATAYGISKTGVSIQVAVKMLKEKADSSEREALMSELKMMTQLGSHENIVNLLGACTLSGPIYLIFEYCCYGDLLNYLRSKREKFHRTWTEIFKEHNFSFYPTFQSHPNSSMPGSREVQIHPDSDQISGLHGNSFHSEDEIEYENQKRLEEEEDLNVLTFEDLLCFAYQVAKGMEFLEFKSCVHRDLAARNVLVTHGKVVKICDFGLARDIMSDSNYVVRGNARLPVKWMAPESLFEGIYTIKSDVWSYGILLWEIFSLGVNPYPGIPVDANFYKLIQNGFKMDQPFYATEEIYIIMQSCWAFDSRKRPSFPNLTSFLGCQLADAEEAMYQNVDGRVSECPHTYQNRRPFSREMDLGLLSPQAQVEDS
T6 sequence (P09619 33-1106): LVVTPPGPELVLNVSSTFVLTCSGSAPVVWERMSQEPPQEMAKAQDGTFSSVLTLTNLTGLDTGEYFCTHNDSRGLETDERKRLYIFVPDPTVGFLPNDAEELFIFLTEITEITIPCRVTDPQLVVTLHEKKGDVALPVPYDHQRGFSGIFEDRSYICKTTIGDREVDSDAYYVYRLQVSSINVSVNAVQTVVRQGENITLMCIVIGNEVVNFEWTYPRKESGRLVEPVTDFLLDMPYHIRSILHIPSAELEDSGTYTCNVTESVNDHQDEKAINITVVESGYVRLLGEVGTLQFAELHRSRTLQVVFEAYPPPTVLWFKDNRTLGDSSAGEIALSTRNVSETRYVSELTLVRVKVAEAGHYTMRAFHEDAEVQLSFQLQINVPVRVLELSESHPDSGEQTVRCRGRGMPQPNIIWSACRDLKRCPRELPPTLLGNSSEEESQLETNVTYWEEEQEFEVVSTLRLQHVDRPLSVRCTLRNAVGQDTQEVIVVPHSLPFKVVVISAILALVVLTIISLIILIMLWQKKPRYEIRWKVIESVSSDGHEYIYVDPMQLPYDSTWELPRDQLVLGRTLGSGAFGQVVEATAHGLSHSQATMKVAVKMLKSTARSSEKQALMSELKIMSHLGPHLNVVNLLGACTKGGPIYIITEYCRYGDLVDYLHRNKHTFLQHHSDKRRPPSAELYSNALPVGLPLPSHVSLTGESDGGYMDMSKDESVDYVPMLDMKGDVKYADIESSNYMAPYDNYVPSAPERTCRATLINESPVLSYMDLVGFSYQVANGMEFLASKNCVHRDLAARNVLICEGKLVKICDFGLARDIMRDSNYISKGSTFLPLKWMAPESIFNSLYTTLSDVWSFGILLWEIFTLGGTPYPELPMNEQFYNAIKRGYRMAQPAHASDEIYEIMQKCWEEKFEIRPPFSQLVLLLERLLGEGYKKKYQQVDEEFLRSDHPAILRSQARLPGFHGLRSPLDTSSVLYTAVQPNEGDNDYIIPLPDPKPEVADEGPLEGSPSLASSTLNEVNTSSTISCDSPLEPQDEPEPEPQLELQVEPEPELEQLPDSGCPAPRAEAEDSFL
T8 sequence (Q13163 whole entry): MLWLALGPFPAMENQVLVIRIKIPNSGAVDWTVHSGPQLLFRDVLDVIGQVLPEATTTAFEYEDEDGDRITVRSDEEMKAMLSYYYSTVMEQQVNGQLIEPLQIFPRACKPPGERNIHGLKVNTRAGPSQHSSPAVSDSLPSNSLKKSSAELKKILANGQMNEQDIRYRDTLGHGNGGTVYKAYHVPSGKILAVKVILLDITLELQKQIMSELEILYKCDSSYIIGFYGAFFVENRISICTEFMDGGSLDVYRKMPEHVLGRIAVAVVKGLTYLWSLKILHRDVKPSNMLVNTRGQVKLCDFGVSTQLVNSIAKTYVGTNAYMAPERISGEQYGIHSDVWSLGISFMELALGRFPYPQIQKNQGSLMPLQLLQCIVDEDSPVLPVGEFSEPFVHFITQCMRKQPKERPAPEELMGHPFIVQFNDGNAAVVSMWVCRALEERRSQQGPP
T7 sequence (P35968 20-1356): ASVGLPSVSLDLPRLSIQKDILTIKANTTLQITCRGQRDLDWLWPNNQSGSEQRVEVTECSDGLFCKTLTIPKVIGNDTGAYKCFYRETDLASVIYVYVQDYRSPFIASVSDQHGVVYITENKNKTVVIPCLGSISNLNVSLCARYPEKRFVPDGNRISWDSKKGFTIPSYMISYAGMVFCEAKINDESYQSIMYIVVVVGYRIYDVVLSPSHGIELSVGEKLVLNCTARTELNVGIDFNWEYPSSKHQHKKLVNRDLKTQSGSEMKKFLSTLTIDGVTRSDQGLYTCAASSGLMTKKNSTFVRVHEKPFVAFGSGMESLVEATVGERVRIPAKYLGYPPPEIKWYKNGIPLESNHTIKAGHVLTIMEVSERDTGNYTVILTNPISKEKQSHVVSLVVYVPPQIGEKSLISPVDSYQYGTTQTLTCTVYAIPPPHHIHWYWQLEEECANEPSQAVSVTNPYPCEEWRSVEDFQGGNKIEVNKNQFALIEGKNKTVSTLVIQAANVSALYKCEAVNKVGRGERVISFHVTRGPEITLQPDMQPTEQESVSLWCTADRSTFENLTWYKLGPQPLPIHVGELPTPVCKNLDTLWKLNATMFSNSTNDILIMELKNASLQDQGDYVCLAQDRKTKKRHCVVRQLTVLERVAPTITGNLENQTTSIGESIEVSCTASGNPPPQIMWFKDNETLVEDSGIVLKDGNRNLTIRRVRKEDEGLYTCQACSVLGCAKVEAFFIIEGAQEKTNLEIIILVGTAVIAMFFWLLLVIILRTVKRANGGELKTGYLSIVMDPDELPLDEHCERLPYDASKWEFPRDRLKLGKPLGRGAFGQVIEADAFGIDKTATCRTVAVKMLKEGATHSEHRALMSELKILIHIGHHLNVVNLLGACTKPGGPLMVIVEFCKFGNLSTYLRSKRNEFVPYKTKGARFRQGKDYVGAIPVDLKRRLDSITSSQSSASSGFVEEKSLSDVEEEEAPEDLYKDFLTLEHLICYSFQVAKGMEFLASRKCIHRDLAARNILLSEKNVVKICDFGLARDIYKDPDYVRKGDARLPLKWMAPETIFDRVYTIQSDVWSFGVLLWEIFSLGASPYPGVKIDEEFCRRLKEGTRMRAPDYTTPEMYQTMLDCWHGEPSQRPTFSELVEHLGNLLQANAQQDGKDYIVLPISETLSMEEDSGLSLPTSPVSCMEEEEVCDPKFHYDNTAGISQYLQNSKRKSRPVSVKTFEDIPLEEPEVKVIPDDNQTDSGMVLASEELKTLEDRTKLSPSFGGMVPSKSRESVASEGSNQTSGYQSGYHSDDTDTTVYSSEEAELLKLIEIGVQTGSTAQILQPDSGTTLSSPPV
T5 sequence (Q12851 whole entry): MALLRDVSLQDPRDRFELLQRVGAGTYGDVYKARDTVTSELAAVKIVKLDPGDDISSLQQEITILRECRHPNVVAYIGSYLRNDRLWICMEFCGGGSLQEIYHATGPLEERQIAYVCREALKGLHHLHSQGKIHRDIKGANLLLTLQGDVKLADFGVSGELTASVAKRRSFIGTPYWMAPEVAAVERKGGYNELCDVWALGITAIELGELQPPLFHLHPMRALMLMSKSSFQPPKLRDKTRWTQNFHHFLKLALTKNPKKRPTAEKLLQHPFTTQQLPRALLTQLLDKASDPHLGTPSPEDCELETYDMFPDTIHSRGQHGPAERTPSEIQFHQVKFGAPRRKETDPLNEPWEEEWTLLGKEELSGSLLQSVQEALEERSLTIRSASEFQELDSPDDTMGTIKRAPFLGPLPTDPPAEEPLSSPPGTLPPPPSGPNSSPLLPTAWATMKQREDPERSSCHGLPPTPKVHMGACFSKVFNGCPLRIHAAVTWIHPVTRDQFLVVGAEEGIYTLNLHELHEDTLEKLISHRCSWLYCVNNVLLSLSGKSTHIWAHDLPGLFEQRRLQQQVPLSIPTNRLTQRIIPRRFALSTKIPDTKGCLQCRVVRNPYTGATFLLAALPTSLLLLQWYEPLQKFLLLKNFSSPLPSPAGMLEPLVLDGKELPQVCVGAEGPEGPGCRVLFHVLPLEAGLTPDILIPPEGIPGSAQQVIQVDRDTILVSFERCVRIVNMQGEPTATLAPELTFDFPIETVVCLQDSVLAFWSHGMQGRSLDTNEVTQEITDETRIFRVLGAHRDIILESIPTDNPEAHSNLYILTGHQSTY

In the case of `NCC(N)C(=O)Nc1ccc(-c2nc3ccccc3s2)cc1` (stereo not shown) [MBP-11901], the Kd (FGFR2) is reported as greater than 30 µM, the Kd (FGFR1) is reported as greater than 30 µM and the Kd (EGFR) is reported as greater than 30 µM. It also gave a Kd (KIT) of 3.85 ± 1.15 µM, a remaining binding at 10 µM (MAP4K2; [3]) of 8.6% and a Kd (MAP4K2; MAP4K2, mean ± S.D. (n = 2)) of 1.1 µM. It also gave a remaining binding at 10 µM (PDGFRβ; [3]) of 33%, a Kd (PDGFRβ; PDGFRβ, mean ± S.D. (n = 2)) of 4 ± 0.22 µM and a remaining binding at 10 µM (VEGFR2; [3]) of 30%. It also gave a Kd (VEGFR2; VEGFR2, mean ± S.D. (n = 2)) of 3.55 ± 0.25 µM, a remaining binding at 10 µM (MEK5; [3]) of 3.3% and a Kd (MEK5; MEK5) greater than 30 µM. The remaining binding at 10 µM (FLT3; [3]) was 16%, the Kd (FLT3; FLT3, mean ± S.D. (n = 2)) was 0.295 ± 0.005 µM and the “level of GPT” value ([1]; 4 weeks) was “within the normal range”. For the same compound, the “Ratio of average luminescence intensity to that of the saline group before administration” value (from here on “Ratio of average luminescence intensity”) ([1]; 0 w (immediately before administration)) was 0.77 ± 0.8 fold, the “Ratio of average luminescence intensity” value ([1]; 1 w) was 2.24 ± 2.9 fold and the “Ratio of average luminescence intensity” value ([1]; 2 w) was 0.83 ± 1.8 fold. The “Ratio of average luminescence intensity” value ([1]; 3 w) was 0.03 ± 0.1 fold, the “Ratio of average luminescence intensity” value ([1]; 4 w) was 0.02 ± 0.0 fold and the kinase phosphorylation [2] was “inhibited”. The tumor disappearance (Huh-7 xenograft tumor) was “did not result in tumor disappearance”, the tumor weight (Huh-7 xenograft tumor) was “significantly reduced” and the IC50 (MDA-MB-231) was 62 ± 6.5 µM. For the same compound, the “migration and invasion of tumor cells” value (HepG2 cells) was “highly inhibited”.
